Legend:
[1] = Partition coefficient 1-octanol/phosphate buffer; assay type: physicochemical; details: pH 7.4, 1-octanol and phosphate buffer
Experimental: Partition coefficients were measured by mixing the [^18F]tracer with 3 g each of 1-octanol and buffer (0.1 M phosphate, pH 7.4) in a test tube. The test tube was vortexed for 3 min at room temperature, followed by centrifugation for 5 min. Two weighed samples (0.5 g each) from the 1-octanol and buffer layers were counted in a well counter. The partition coefficient was determined by calculating the ratio of cpm/g of 1-octanol to that of buffer. Samples from the 1-octanol layer were re-partitioned until consistent partitions of coefficient values were obtained. Values are the mean±SEM of three independent experiments, each in duplicates.

[2] = Biodistribution of [18F]FP-6b in normal mice (Table 4); assay type: in vivo, ICR mice; details: iv
Experimental: After anesthetizing ICR mice (22-25 g male) with isoflurane, 0.15 mL of a 0.1% bovine serum albumin solution containing [^18F]FP-(+)-6b (10-20 μCi) was injected directly into the tail vein. The mice (n=3 for each time point) were sacrificed by cervical dislocation (under isoflurane anesthesia) at indicated time-points post-injection. The organs of interest were removed and weighed, and the radioactivity was counted with an automatic gamma counter. The percentage dose per organ was calculated by a comparison of the tissue counts to suitably diluted aliquots of the injected material. The total activity of the blood was calculated under the assumption that it was 7% of the total body weight. The % does/g of samples was calculated by comparing the sample counts with the count of the diluted initial dose.

[3] = Baboon microPET imaging (FIG. 7); assay type: in vivo; details: iv, 7 mCi, 70-90 min

SMILES: COc1cc2c(cc1OCCC[18F])CCN1CC(CC(C)C)C(O)CC21 (racemic) [[^18F]6b]
- logD at 3 min [1]: 2.61

SMILES: COc1cc2c(cc1OCCC[18F])CCN1C[C@@H](CC(C)C)[C@H](O)C[C@H]21 [[^18F]-(+)-6b]
- Organ distribution Blood ([2]; 2 min): 2.12 ± 0.17 % dose/g
- Organ distribution Bone ([2]; 2 min): 1.95 ± 0.30 % dose/g
- Organ distribution Brain ([2]; 2 min): 4.82 ± 0.86 % dose/g
- Organ distribution Heart ([2]; 2 min): 5.47 ± 1.19 % dose/g
- Organ distribution Kidney ([2]; 2 min): 10.7 ± 2.02 % dose/g
- Organ distribution Liver ([2]; 2 min): 24.6 ± 1.37 % dose/g
- Organ distribution Lung ([2]; 2 min): 9.04 ± 4.71 % dose/g
- Organ distribution Muscle ([2]; 2 min): 0.78 ± 0.11 % dose/g
- Organ distribution Skin ([2]; 2 min): 1.05 ± 0.12 % dose/g
- Organ distribution Spleen ([2]; 2 min): 7.38 ± 1.62 % dose/g
- Ratio (vs CB) Cortex ([2]; 2 min): 0.97
- Ratio (vs CB) Hippocampus ([2]; 2 min): 0.97
- Ratio (vs CB) Hypothalamus ([2]; 2 min): 1.37
- Ratio (vs CB) Remainder ([2]; 2 min): 1.01
- Ratio (vs CB) Striatum ([2]; 2 min): 1.56
- Regional brain distribution Cerebellum (CB) ([2]; 2 min): 4.67 ± 0.74 % dose/g
- Regional brain distribution Cortex ([2]; 2 min): 4.54 ± 0.66 % dose/g
- Regional brain distribution Hippocampus ([2]; 2 min): 4.54 ± 0.72 % dose/g
- Regional brain distribution Hypothalamus ([2]; 2 min): 6.41 ± 1.11 % dose/g
- Regional brain distribution Remainder ([2]; 2 min): 4.71 ± 0.74 % dose/g
- Regional brain distribution Striatum ([2]; 2 min): 7.28 ± 0.80 % dose/g
- Organ distribution Blood ([2]; 30 min): 1.73 ± 0.15 % dose/g
- Organ distribution Bone ([2]; 30 min): 4.88 ± 1.43 % dose/g
- Organ distribution Brain ([2]; 30 min): 2.05 ± 0.37 % dose/g
- Organ distribution Heart ([2]; 30 min): 2.43 ± 0.22 % dose/g
- Organ distribution Kidney ([2]; 30 min): 5.81 ± 1.15 % dose/g
- Organ distribution Liver ([2]; 30 min): 22.2 ± 1.98 % dose/g
- Organ distribution Lung ([2]; 30 min): 3.17 ± 0.33 % dose/g
- Organ distribution Muscle ([2]; 30 min): 1.10 ± 0.12 % dose/g
- Organ distribution Skin ([2]; 30 min): 1.42 ± 0.03 % dose/g
- Organ distribution Spleen ([2]; 30 min): 3.69 ± 0.25 % dose/g
- Ratio (vs CB) Cortex ([2]; 30 min): 1.34
- Ratio (vs CB) Hippocampus ([2]; 30 min): 1.59
- Ratio (vs CB) Hypothalamus ([2]; 30 min): 3.52
- Ratio (vs CB) Remainder ([2]; 30 min): 1.45
- Ratio (vs CB) Striatum ([2]; 30 min): 4.51
- Regional brain distribution Cerebellum (CB) ([2]; 30 min): 1.41 ± 0.23 % dose/g
- Regional brain distribution Cortex ([2]; 30 min): 1.88 ± 0.63 % dose/g
- Regional brain distribution Hippocampus ([2]; 30 min): 2.23 ± 0.59 % dose/g
- Regional brain distribution Hypothalamus ([2]; 30 min): 4.95 ± 0.84 % dose/g
- Regional brain distribution Remainder ([2]; 30 min): 2.04 ± 0.28 % dose/g
- Regional brain distribution Striatum ([2]; 30 min): 6.34 ± 1.01 % dose/g
- Organ distribution Blood ([2]; 60 min): 0.97 ± 0.04 % dose/g
- Organ distribution Bone ([2]; 60 min): 9.22 ± 0.48 % dose/g
- Organ distribution Brain ([2]; 60 min): 1.10 ± 0.32 % dose/g
- Organ distribution Heart ([2]; 60 min): 1.67 ± 0.02 % dose/g
- Organ distribution Kidney ([2]; 60 min): 3.48 ± 0.34 % dose/g
- Organ distribution Liver ([2]; 60 min): 14.5 ± 0.91 % dose/g
- Organ distribution Lung ([2]; 60 min): 2.00 ± 0.05 % dose/g
- Organ distribution Muscle ([2]; 60 min): 0.73 ± 0.04 % dose/g
- Organ distribution Skin ([2]; 60 min): 1.06 ± 0.04 % dose/g
- Organ distribution Spleen ([2]; 60 min): 2.11 ± 0.05 % dose/g
- Ratio (vs CB) Cortex ([2]; 60 min): 1.00
- Ratio (vs CB) Hippocampus ([2]; 60 min): 1.32
- Ratio (vs CB) Hypothalamus ([2]; 60 min): 2.71
- Ratio (vs CB) Remainder ([2]; 60 min): 1.45
- Ratio (vs CB) Striatum ([2]; 60 min): 4.74
- Regional brain distribution Cerebellum (CB) ([2]; 60 min): 0.89 ± 0.01 % dose/g
- Regional brain distribution Cortex ([2]; 60 min): 0.89 ± 0.11 % dose/g
- Regional brain distribution Hippocampus ([2]; 60 min): 1.18 ± 0.12 % dose/g
- Regional brain distribution Hypothalamus ([2]; 60 min): 2.42 ± 0.52 % dose/g
- Regional brain distribution Remainder ([2]; 60 min): 1.30 ± 0.08 % dose/g
- Regional brain distribution Striatum ([2]; 60 min): 4.24 ± 0.78 % dose/g
- Organ distribution Blood ([2]; 2 hr): 0.57 ± 0.09 % dose/g
- Organ distribution Bone ([2]; 2 hr): 12.7 ± 1.84 % dose/g
- Organ distribution Brain ([2]; 2 hr): 0.68 ± 0.11 % dose/g
- Organ distribution Heart ([2]; 2 hr): 0.91 ± 0.14 % dose/g
- Organ distribution Kidney ([2]; 2 hr): 2.28 ± 0.34 % dose/g
- Organ distribution Liver ([2]; 2 hr): 9.81 ± 0.94 % dose/g
- Organ distribution Lung ([2]; 2 hr): 1.26 ± 0.13 % dose/g
- Organ distribution Muscle ([2]; 2 hr): 0.53 ± 0.05 % dose/g
- Organ distribution Skin ([2]; 2 hr): 0.67 ± 0.06 % dose/g
- Organ distribution Spleen ([2]; 2 hr): 1.40 ± 0.35 % dose/g
- Ratio (vs CB) Cortex ([2]; 2 hr): 0.96
- Ratio (vs CB) Hippocampus ([2]; 2 hr): 1.09
- Ratio (vs CB) Hypothalamus ([2]; 2 hr): 1.90
- Ratio (vs CB) Remainder ([2]; 2 hr): 1.15
- Ratio (vs CB) Striatum ([2]; 2 hr): 3.28
- Regional brain distribution Cerebellum (CB) ([2]; 2 hr): 0.54 ± 0.09 % dose/g
- Regional brain distribution Cortex ([2]; 2 hr): 0.51 ± 0.02 % dose/g
- Regional brain distribution Hippocampus ([2]; 2 hr): 0.58 ± 0.15 % dose/g
- Regional brain distribution Hypothalamus ([2]; 2 hr): 1.02 ± 0.11 % dose/g
- Regional brain distribution Remainder ([2]; 2 hr): 0.62 ± 0.10 % dose/g
- Regional brain distribution Striatum ([2]; 2 hr): 1.76 ± 0.33 % dose/g
- Organ distribution Blood ([2]; 4 hr): 0.06 ± 0.02 % dose/g
- Organ distribution Bone ([2]; 4 hr): 3.49 ± 0.35 % dose/g
- Organ distribution Brain ([2]; 4 hr): 0.16 ± 0.03 % dose/g
- Organ distribution Heart ([2]; 4 hr): 0.12 ± 0.01 % dose/g
- Organ distribution Kidney ([2]; 4 hr): 0.31 ± 0.02 % dose/g
- Organ distribution Liver ([2]; 4 hr): 1.58 ± 0.08 % dose/g
- Organ distribution Lung ([2]; 4 hr): 0.19 ± 0.01 % dose/g
- Organ distribution Muscle ([2]; 4 hr): 0.06 ± 0.01 % dose/g
- Organ distribution Skin ([2]; 4 hr): 0.09 ± 0.01 % dose/g
- Organ distribution Spleen ([2]; 4 hr): 0.17 ± 0.02 % dose/g
- Ratio (vs CB) Cortex ([2]; 4 hr): 0.87
- Ratio (vs CB) Hippocampus ([2]; 4 hr): 0.99
- Ratio (vs CB) Hypothalamus ([2]; 4 hr): 1.15
- Ratio (vs CB) Remainder ([2]; 4 hr): 1.02
- Ratio (vs CB) Striatum ([2]; 4 hr): 1.11
- Regional brain distribution Cerebellum (CB) ([2]; 4 hr): 0.41 ± 0.02 % dose/g
- Regional brain distribution Cortex ([2]; 4 hr): 0.36 ± 0.02 % dose/g
- Regional brain distribution Hippocampus ([2]; 4 hr): 0.41 ± 0.01 % dose/g
- Regional brain distribution Hypothalamus ([2]; 4 hr): 0.47 ± 0.01 % dose/g
- Regional brain distribution Remainder ([2]; 4 hr): 0.42 ± 0.05 % dose/g
- Regional brain distribution Striatum ([2]; 4 hr): 0.46 ± 0.13 % dose/g
- microPET uptake [3]: no indication of skull (bone) uptake
